Reference: US20250042925A1, “Improved Compositions and Methods for Targeting Mitochondria in Cancer Cells” (The Medical College of Wisconsin, Inc., priority 2021, published 2025)
“Also recorded” adds a separate entry of the source.

Tests used:
[1] = system: KPC1242 murine pancreatic cancer; test: Tumor growth in KPC1242 engrafted mice; format: in vivo; conditions: 1 mg pCF3-MMe, 5 days on and 2 days off, from 17 days after engraftment
Protocol: FIGS. 6A-6I show pCF3-MMe inhibits tumor growth with enhanced biosafety relative to MMe. C57BL/6J mice were treated with 1 mg MMe, 1 mg pCF3-MMe, 1 mg MMe, 250 μg MMe, 100 μg MMe, 50 μg MMe, or 25 μg MMe for 6 hours (FIG. 6A) or 5 days (FIG. 6D). Kaplan-Meier survival curve of mice treated for 6 hours (FIG. 6B) or 5 days (FIG. 5E), n=3-5. Numbers of mice surviving over time after a single injection (FIG. 6C) or 5 repeated doses (FIG. 6F). Significance was determined using a Mantel-Cox test (*, p<0.05; **, p<0.01). KPC1242 murine pancreatic cancer engrafted mice were treated with 1 mg pCF3-MMe or vehicle 5 days on and 2 days off (FIG. 6G). […] Tumor volume was measured ex vivo from vehicle and pCF3-MMe-treated mice (FIG. 6I). […] Significant differences were determined by Student's t-test (*, p<0.05).
Given the strong safety shown from a single injection, further studies were conducted to determine if mice tolerated repeated injection using our published treatment schedule by injecting non-tumor-bearing mice daily for 5 consecutive days with doses ranging from as little as 25 μg/mouse to as much as 1 mg/mouse 20 (FIG. 6D). […] Taken together, trifluoromethylation of TPP^+ improves the reproducible detection, quantitative measurement, and safety profile of TPP^+-conjugated compounds while retaining potent anti-tumor effects in vivo. […]

[2] = Quantitative 19F-NMR of compound persistence in tumor, blood and liver; format: in vivo, mice
Protocol: To validate ^19F-NMR as a viable detection approach, the persistence of pCF3-MMe in tumors was analyzed. KPC1242 engrafted mice were administered 1 mg/mouse pCF3-MMe starting 12 days after implantation. […] We next designed a quantitative NMR approach to measure the in vivo persistence of pCF3-MMe. First, serial dilutions of known concentrations of pCF3-MMe were prepared, and the intensity of the NMR peaks at a set scan number (n=64) was used to create a standard curve. Next, a one-phase decay least-squares fit equation was generated to calculate the amount of pCF3-MMe at each time point using the standardized scan number.
Cells (1×10^7 cells/10 cm dish) were allowed to adhere overnight and then treated with varying concentrations of mitochondria-targeted compounds. Compounds were extracted using multiple methods and optimized for detection and quantification: A) Cells or tumors were placed in a dry ice ethanol bath followed by 80% v/v MeOH in water. Cells were placed on a dry ice ethanol bath on an orbital shaker for 20 minutes, and then cells were collected and centrifuged at 10,000×g; B) Post-treatment cells were lifted with TrypLE (Gibco, Cat #11558856) and centrifuged, then compound was extracted from the cells or tumors with 9:1 CHCl3:H2O, CH2Cl2, or 1:1 MeCN:H2O. Following extraction, solvents were evaporated using a Biotage V-10 Touch (Uppsala, Sweden), and before NMR acquisition, samples were resuspended in an equal volume of DMSO-d6.
^19F 1D-NMR spectra were collected on a Bruker Avance-III 500 MHz NMR spectrometer equipped with a 1H&^19F/13C/15N-TCI cryoprobe. […] To evaluate pCF3-MMe concentrations in biological samples, a standard curve was generated using pCF3-MMe concentrations of 0.25, 0.50, 0.75, 1.0, 1.25, and 1.5 mg/mL, and the resulting peak intensities were analyzed by linear regression. […]
All animal studies were approved by the Institutional Animal Care and Use Committees at the Medical College of Wisconsin. […] Tumors were excised, and volume (length×width×depth=mm^3) was measured post-mortem using calipers. […]

SMILES: N=C(N)NC(=N)NCCCCCCCCCC[P+](c1ccc(C(F)(F)F)cc1)(c1ccc(C(F)(F)F)cc1)c1ccc(C(F)(F)F)cc1.[Br-] [pCF3-MMe, (10-(3-carbamimidoylguanidino)decyl)tris(4-(trifluoromethyl)phenyl)phosphonium bromide]
- tumor size and volume [1]: significantly decreased tumor size and volume
- detection in the blood and liver ([2]; 2 hours after injection, 1 mg): undetectable; also recorded: not detected
- detection in the blood and liver ([2]; 6 hours after injection): barely detectable above the signal-to-noise ratio
- levels within the tumors ([2]; 24 hours after injection, 1 mg/mouse): measurable levels
